Test results as given in PubChem BioAssay (NCI).
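Cultured in 96-well plates, cells were exposed to test compound for 48 hours across five concentrations. Definition used: TGI = concentration required for complete inhibition of growth.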

Columns and labels:
Assay in all cases: DTP human tumour cell line panel, 48 h
786-0 renal = tested on: 786-0 renal
A498 renal = tested on: A498 renal
A549 NSCLC = tested on: A549 NSCLC
ACHN renal = tested on: ACHN renal
BT-549 breast = tested on: BT-549 breast
CAKI-1 renal = tested on: CAKI-1 renal
CCRF-CEM leukemia = tested on: CCRF-CEM leukemia
COLO 205 colon = tested on: COLO 205 colon
DU-145 prostate = tested on: DU-145 prostate
EKVX NSCLC = tested on: EKVX NSCLC
HCC-2998 colon = tested on: HCC-2998 colon
HCT-116 colon = tested on: HCT-116 colon
HCT-15 colon = tested on: HCT-15 colon
HL-60(TB) leukemia = tested on: HL-60(TB) leukemia
HOP-62 NSCLC = tested on: HOP-62 NSCLC
HOP-92 NSCLC = tested on: HOP-92 NSCLC
HS 578T breast = tested on: HS 578T breast
HT29 colon = tested on: HT29 colon
IGROV1 ovarian = tested on: IGROV1 ovarian
K-562 leukemia = tested on: K-562 leukemia
KM12 colon = tested on: KM12 colon
LOX IMVI melanoma = tested on: LOX IMVI melanoma
M14 melanoma = tested on: M14 melanoma
MALME-3M melanoma = tested on: MALME-3M melanoma
MDA-MB-231 breast = tested on: MDA-MB-231 breast
MDA-MB-435 = tested on: MDA-MB-435
MDA-N = tested on: MDA-N
MOLT-4 leukemia = tested on: MOLT-4 leukemia
NCI-H226 lung = tested on: NCI-H226 lung
NCI-H23 lung = tested on: NCI-H23 lung
NCI-H460 lung = tested on: NCI-H460 lung
NCI-H522 lung = tested on: NCI-H522 lung
NCI/ADR-RES ovarian = tested on: NCI/ADR-RES ovarian
OVCAR-3 ovarian = tested on: OVCAR-3 ovarian
OVCAR-4 ovarian = tested on: OVCAR-4 ovarian
OVCAR-5 ovarian = tested on: OVCAR-5 ovarian
OVCAR-8 ovarian = tested on: OVCAR-8 ovarian
PC-3 prostate = tested on: PC-3 prostate
RPMI-8226 leukemia = tested on: RPMI-8226 leukemia
RXF 393 renal = tested on: RXF 393 renal
SF-268 CNS = tested on: SF-268 CNS
SF-295 CNS = tested on: SF-295 CNS
SF-539 CNS = tested on: SF-539 CNS
SK-MEL-2 melanoma = tested on: SK-MEL-2 melanoma
SK-MEL-28 melanoma = tested on: SK-MEL-28 melanoma
SK-MEL-5 melanoma = tested on: SK-MEL-5 melanoma
SK-OV-3 ovarian = tested on: SK-OV-3 ovarian
SN12C renal = tested on: SN12C renal
SNB-19 CNS = tested on: SNB-19 CNS
SNB-75 CNS = tested on: SNB-75 CNS
SR leukemia = tested on: SR leukemia
SW-620 colon = tested on: SW-620 colon
T-47D breast = tested on: T-47D breast
TK-10 renal = tested on: TK-10 renal
U251 CNS = tested on: U251 CNS
UACC-257 melanoma = tested on: UACC-257 melanoma
UACC-62 melanoma = tested on: UACC-62 melanoma
MCF7 breast = tested on: MCF7 breast
UO-31 renal = tested on: UO-31 renal

Clc1ccc(C=NC23CC4CC(CC(C4)C2)C3)c(Cl)c1
TGI (786-0 renal): > 10 µM
TGI (A498 renal): > 10 µM
TGI (A549 NSCLC): > 10 µM
TGI (ACHN renal): > 10 µM
TGI (BT-549 breast): > 10 µM
TGI (CAKI-1 renal): > 10 µM
TGI (CCRF-CEM leukemia): > 10 µM
TGI (COLO 205 colon): > 10 µM
TGI (DU-145 prostate): > 10 µM
TGI (EKVX NSCLC): > 10 µM
TGI (HCC-2998 colon): > 10 µM
TGI (HCT-116 colon): > 10 µM
TGI (HCT-15 colon): > 10 µM
TGI (HL-60(TB) leukemia): > 10 µM
TGI (HOP-62 NSCLC): > 10 µM
TGI (HOP-92 NSCLC): > 10 µM
TGI (HS 578T breast): > 10 µM
TGI (HT29 colon): > 10 µM
TGI (IGROV1 ovarian): > 10 µM
TGI (K-562 leukemia): > 10 µM
TGI (KM12 colon): > 10 µM
TGI (LOX IMVI melanoma): > 10 µM
TGI (M14 melanoma): > 10 µM
TGI (MALME-3M melanoma): > 10 µM
TGI (MDA-MB-231 breast): > 10 µM
TGI (MDA-MB-435): > 10 µM
TGI (MDA-N): > 10 µM
TGI (MOLT-4 leukemia): > 10 µM
TGI (NCI-H226 lung): > 10 µM
TGI (NCI-H23 lung): > 10 µM
TGI (NCI-H460 lung): > 10 µM
TGI (NCI-H522 lung): > 10 µM
TGI (NCI/ADR-RES ovarian): > 10 µM
TGI (OVCAR-3 ovarian): > 10 µM
TGI (OVCAR-4 ovarian): > 10 µM
TGI (OVCAR-5 ovarian): > 10 µM
TGI (OVCAR-8 ovarian): > 10 µM
TGI (PC-3 prostate): > 10 µM
TGI (RPMI-8226 leukemia): > 10 µM
TGI (RXF 393 renal): > 10 µM
TGI (SF-268 CNS): > 10 µM
TGI (SF-295 CNS): > 10 µM
TGI (SF-539 CNS): > 10 µM
TGI (SK-MEL-2 melanoma): > 10 µM
TGI (SK-MEL-28 melanoma): > 10 µM
TGI (SK-MEL-5 melanoma): > 10 µM
TGI (SK-OV-3 ovarian): > 10 µM
TGI (SN12C renal): > 10 µM
TGI (SNB-19 CNS): > 10 µM
TGI (SNB-75 CNS): > 10 µM
TGI (SR leukemia): > 10 µM
TGI (SW-620 colon): > 10 µM
TGI (T-47D breast): > 10 µM
TGI (TK-10 renal): > 10 µM
TGI (U251 CNS): > 10 µM
TGI (UACC-257 melanoma): > 10 µM
TGI (UACC-62 melanoma): > 10 µM

C=C1C(=O)[C@@]23CC[C@@H]4[C@@]5(C)CCC[C@@]4(OC5=O)[C@@]2(C)CC[C@@H]1C3
TGI (786-0 renal): 2.55 µM
TGI (A498 renal): 11.8 µM
TGI (A549 NSCLC): 36.3 µM
TGI (ACHN renal): 2.64 µM
TGI (BT-549 breast): 3.24 µM
TGI (CAKI-1 renal): 2.32 µM
TGI (CCRF-CEM leukemia): > 33.7 µM
TGI (DU-145 prostate): 12.2 µM
TGI (EKVX NSCLC): 11.8 µM
TGI (HCC-2998 colon): 5.56 µM
TGI (HCT-116 colon): 2.92 µM
TGI (HCT-15 colon): 2.44 µM
TGI (HL-60(TB) leukemia): > 100 µM
TGI (HOP-62 NSCLC): > 23.7 µM
TGI (HOP-92 NSCLC): 57.7 µM
TGI (HS 578T breast): > 54 µM
TGI (HT29 colon): 10.6 µM
TGI (IGROV1 ovarian): 4.99 µM
TGI (KM12 colon): 10.2 µM
TGI (LOX IMVI melanoma): 2.96 µM
TGI (MALME-3M melanoma): 5.31 µM
TGI (MCF7 breast): 2.21 µM
TGI (MDA-MB-435): 13.7 µM
TGI (MDA-N): > 100 µM
TGI (MOLT-4 leukemia): > 26.1 µM
TGI (NCI-H226 lung): 9.15 µM
TGI (NCI-H23 lung): 4.49 µM
TGI (NCI-H460 lung): 3.74 µM
TGI (NCI-H522 lung): 2.43 µM
TGI (NCI/ADR-RES ovarian): 21.4 µM
TGI (OVCAR-3 ovarian): 3.95 µM
TGI (OVCAR-4 ovarian): 5.28 µM
TGI (OVCAR-5 ovarian): 6.27 µM
TGI (OVCAR-8 ovarian): 8.54 µM
TGI (PC-3 prostate): 5.31 µM
TGI (RXF 393 renal): 3.25 µM
TGI (SF-268 CNS): 6.12 µM
TGI (SF-295 CNS): 20.9 µM
TGI (SF-539 CNS): 6.3 µM
TGI (SK-MEL-2 melanoma): 8.12 µM
TGI (SK-MEL-28 melanoma): 10.3 µM
TGI (SK-MEL-5 melanoma): 3.49 µM
TGI (SK-OV-3 ovarian): 23.3 µM
TGI (SN12C renal): 23.5 µM
TGI (SNB-19 CNS): 9.08 µM
TGI (SNB-75 CNS): 13.1 µM
TGI (SR leukemia): > 100 µM
TGI (T-47D breast): 57.9 µM
TGI (TK-10 renal): 2.44 µM
TGI (U251 CNS): 7.05 µM
TGI (UACC-257 melanoma): 4.06 µM
TGI (UACC-62 melanoma): 3.3 µM
TGI (UO-31 renal): 3.43 µM
